Assay results published in patent publication US8772300B2, “Phenyl or pyridinyl-ethynyl derivatives” (Hoffmann-La Roche Inc., priority 2011, dated 2014).

Molecular target: T1, human mGlu5a receptor (Homo sapiens, UniProt P41594)
T1 construct: expressed in transfected cells
Test: Intracellular Ca2+ mobilization assay (mGlu5 PAM)
Type: cell-based
Details: for Emax: HEK293, maximal response in % of the maximal stimulatory effect obtained with saturating concentrations of L-glutamate, HEK-293 human mGlu5a cells, read-out: Eff. (%); for EC50: HEK-293 cells stably transfected with human mGlu5a receptor, L-glutamate added at EC20 (typically around 80 μM) after 10-30 min pre-incubation with test compound, read-out: EC50 (nM) mGlu5PAM
Experimental: A monoclonal HEK-293 cell line stably transfected with a cDNA encoding for the human mGlu5a receptor was generated; for the work with mGlu5 Positive Allosteric Modulators (PAMs), a cell line with low receptor expression levels and low constitutive receptor activity was selected to allow the differentiation of agonistic versus PAM activity. Cells were cultured according to standard protocols (Freshney, 2000) in Dulbecco's Modified Eagle Medium with high glucose supplemented with 1 mM glutamine, 10% (vol/vol) heat-inactivated bovine calf serum, Penicillin/Streptomycin, 50 μg/ml hygromycin and 15 μg/ml blasticidin (all cell culture reagents and antibiotics from Invitrogen, Basel, Switzerland).
About 24 hrs before an experiment, 5×10^4 cells/well were seeded in poly-D-lysine coated, black/clear-bottomed 96-well plates. The cells were loaded with 2.5 μM Fluo-4AM in loading buffer (1×HBSS, 20 mM HEPES) for 1 hr at 37° C. and washed five times with loading buffer. The cells were transferred into a Functional Drug Screening System 7000 (Hamamatsu, Paris, France), and 11 half logarithmic serial dilutions of test compound at 37° C. were added and the cells were incubated for 10-30 min with on-line recording of fluorescence. Following this pre-incubation step, the agonist L-glutamate was added to the cells at a concentration corresponding to EC20 (typically around 80 μM) with on-line recording of fluorescence; in order to account for day-to-day variations in the responsiveness of cells, the EC20 of glutamate was determined immediately ahead of each experiment by recording of a full dose-response curve of glutamate.
Responses were measured as peak increase in fluorescence minus basal (i.e. fluorescence without addition of L-glutamate), normalized to the maximal stimulatory effect obtained with saturating concentrations of L-glutamate. Graphs were plotted with the % maximal stimulatory using XLfit, a curve fitting program that iteratively plots the data using Levenburg Marquardt algorithm. The single site competition analysis equation used was y=A+((B−A)/(1+((x/C)D))), where y is the % maximal stimulatory effect, A is the minimum y, B is the maximum y, C is the EC50, x is the log 10 of the concentration of the competing compound and D is the slope of the curve (the Hill Coefficient). From these curves the EC50 (concentration at which half maximal stimulation was achieved), the Hill coefficient as well as the maximal response in % of the maximal stimulatory effect obtained with saturating concentrations of L-glutamate were calculated.
A depression of the signal observed after addition of the EC20 concentration of L-glutamate was indicative of an inhibitory activity of the test compound.

T1 sequence (P41594 21-1180 isoform P41594-2 limits assumed): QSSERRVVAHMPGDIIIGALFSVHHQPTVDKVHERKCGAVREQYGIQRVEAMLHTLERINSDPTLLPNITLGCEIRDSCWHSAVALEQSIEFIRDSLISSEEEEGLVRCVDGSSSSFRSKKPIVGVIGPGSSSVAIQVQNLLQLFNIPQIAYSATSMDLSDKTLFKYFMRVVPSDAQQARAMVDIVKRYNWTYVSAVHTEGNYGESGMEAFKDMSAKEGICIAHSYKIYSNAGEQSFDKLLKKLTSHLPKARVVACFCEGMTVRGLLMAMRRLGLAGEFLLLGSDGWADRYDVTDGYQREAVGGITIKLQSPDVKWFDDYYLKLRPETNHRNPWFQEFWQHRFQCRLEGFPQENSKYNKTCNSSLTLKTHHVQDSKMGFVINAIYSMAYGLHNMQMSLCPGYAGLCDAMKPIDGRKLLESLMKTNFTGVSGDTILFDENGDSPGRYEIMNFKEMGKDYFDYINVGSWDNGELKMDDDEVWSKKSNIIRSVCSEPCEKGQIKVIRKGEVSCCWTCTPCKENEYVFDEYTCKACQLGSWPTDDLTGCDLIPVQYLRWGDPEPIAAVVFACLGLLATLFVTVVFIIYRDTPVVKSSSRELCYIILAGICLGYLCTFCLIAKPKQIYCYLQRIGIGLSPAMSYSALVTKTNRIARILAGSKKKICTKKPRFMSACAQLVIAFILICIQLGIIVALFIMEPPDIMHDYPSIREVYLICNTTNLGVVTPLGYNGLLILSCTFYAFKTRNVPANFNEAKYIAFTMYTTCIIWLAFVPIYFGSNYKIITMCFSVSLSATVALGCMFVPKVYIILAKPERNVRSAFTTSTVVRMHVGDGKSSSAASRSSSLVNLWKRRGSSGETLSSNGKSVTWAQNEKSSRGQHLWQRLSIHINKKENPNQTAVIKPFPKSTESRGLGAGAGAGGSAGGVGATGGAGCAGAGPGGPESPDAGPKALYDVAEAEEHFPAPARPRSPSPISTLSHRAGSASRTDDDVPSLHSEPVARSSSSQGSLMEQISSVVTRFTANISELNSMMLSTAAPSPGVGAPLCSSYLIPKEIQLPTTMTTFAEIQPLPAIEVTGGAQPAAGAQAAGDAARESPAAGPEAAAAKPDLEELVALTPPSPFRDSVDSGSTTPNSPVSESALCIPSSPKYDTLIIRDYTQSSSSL

SMILES	Emax [%]	EC50 [nM]
CN(C(=O)c1ccc(C#Cc2ccc(F)c(F)c2)cn1)C1(C)COC1 [Example 30, 5-(3,4-Difluoro-phenylethynyl)-pyridine-2-carboxylic Acid methyl-(3-methyl-oxetan-3-yl)-amide]	50	60
CC1(C)CN(C(=O)c2ccc(C#Cc3cc(F)ccc3F)cn2)CCO1 [Example 36, [5-(2,5-Difluoro-phenylethynyl)-pyridin-2-yl]-(2,2-dimethyl-morpholin-4-yl)-methanone]	44	56
CC1(C)CN(C(=O)c2ncc(C#Cc3ccccc3)cn2)CCC1O (racemic) [Example 48, (RS)-(4-Hydroxy-3,3-dimethyl-piperidin-1-yl)-(5-phenylethynyl-pyrimidin-2-yl)-methanone]	55	49
CC(C)(C)NC(=O)c1ncc(C#Cc2cccc(Cl)c2)cn1 [Example 14, 5-(3-Chloro-phenylethynyl)-pyrimidine-2-carboxylic Acid tert-butylamide]	95	111
CC1(C)CN(C(=O)c2ncc(C#Cc3cccc(F)c3)cn2)CCC1O (racemic) [Example 49, (RS)-[5-(3-Fluoro-phenylethynyl)-pyrimidin-2-yl]-(4-hydroxy-3,3-dimethyl-piperidin-1-yl)-methanone]	48	98
CN(C(=O)c1ccc(C#Cc2cncc(F)c2)cn1)C(C)(C)C [Example 8, 5-(5-Fluoro-pyridin-3-ylethynyl)-pyridine-2-carboxylic Acid tert-butyl-methyl-amide]	79	62
Cc1cccc(C#Cc2cnc(C(=O)NC(C)(C)C)nc2)c1 [Example 13, 5-m-Tolylethynyl-pyrimidine-2-carboxylic Acid tert-butylamide]	83	71
CN(C(=O)c1ncc(C#Cc2cccc(F)c2)cn1)C1(C(F)(F)F)CC1 [Example 44, 5-(3-Fluoro-phenylethynyl)-pyrimidine-2-carboxylic Acid methyl-(1-trifluoromethyl-cyclopropyl)-amide]	68	42
O=C(NC1COC1)c1ccc(C#Cc2cccc(F)c2)cn1 [Example 26, 5-(3-Fluoro-phenylethynyl)-pyridine-2-carboxylic Acid oxetan-3-ylamide]	80	43
CN(C(=O)c1ncc(C#Cc2cccc(F)c2)cn1)C(C)(C)C [Example 12, 5-(3-Fluoro-phenylethynyl)-pyrimidine-2-carboxylic Acid tert-butyl-methyl-amide]	55	23
CN(C(=O)c1ccc(C#Cc2cccc(F)c2)cn1)C(C)(C)C [Example 3, 5-(3-Fluoro-phenylethynyl)-pyridine-2-carboxylic Acid tert-butyl-methyl-amide]	64	16
CN(C(=O)c1ncc(C#Cc2cncc(Cl)c2)cn1)C(C)(C)C [Example 16, 5-(5-Chloro-pyridin-3-ylethynyl)-pyrimidine-2-carboxylic Acid tert-butyl-methyl-amide]	27	58
CC1(C)CC(O)CCN1C(=O)c1ncc(C#Cc2ccccc2)cn1 (racemic) [Example 47, (RS)-(4-Hydroxy-2,2-dimethyl-piperidin-1-yl)-(5-phenylethynyl-pyrimidin-2-yl)-methanone]	57	66
CC1(C)CC(O)CCN1C(=O)c1ncc(C#Cc2cccc(F)c2)cc1F (racemic) [Example 67, (RS)-[3-Fluoro-5-(3-fluoro-phenylethynyl)-pyridin-2-yl]-(4-hydroxy-2,2-dimethyl-piperidin-1-yl)-methanone]	57	54
CC(C)(NC(=O)c1ncc(C#Cc2ccnc(Cl)c2)cn1)C(F)(F)F [Example 58, 5-(2-Chloro-pyridin-4-ylethynyl)-pyrimidine-2-carboxylic Acid (2,2,2-trifluoro-1,1-dimethyl-ethyl)-amide]	30	57
CC1(C)CN(C(=O)c2ccc(C#Cc3cccc(F)c3)cn2)CCC1O (racemic) [Example 41, (RS)-[5-(3-Fluoro-phenylethynyl)-pyridin-2-yl]-(4-hydroxy-3,3-dimethyl-piperidin-1-yl)-methanone]	45	72
CC1(C)CC(O)CCN1C(=O)c1ncc(C#Cc2cccc(F)c2)cn1 (racemic) [Example 65, (RS)-[5-(3-Fluoro-phenylethynyl)-pyrimidin-2-yl]-(4-hydroxy-2,2-dimethyl-piperidin-1-yl)-methanone]	55	149
Cc1cc(C#Cc2cccc(F)c2)cnc1C(=O)N(C)C(C)(C)C [Example 17, 5-(3-Fluoro-phenylethynyl)-3-methyl-pyridine-2-carboxylic Acid tert-butyl-methyl-amide]	49	37
CC1(C)CN(C(=O)c2ccc(C#Cc3ccc(F)cc3)cn2)CCC1O (racemic) [Example 40, (RS)-[5-(4-Fluoro-phenylethynyl)-pyridin-2-yl]-(4-hydroxy-3,3-dimethyl-piperidin-1-yl)-methanone]	37	93
CC1(C)CC(O)CCN1C(=O)c1ccc(C#Cc2cccc(F)c2)cn1 (racemic) [Example 63, (RS)-[5-(3-Fluoro-phenylethynyl)-pyridin-2-yl]-(4-hydroxy-2,2-dimethyl-piperidin-1-yl)-methanone]	45	40

Continued by falling EC50, values first:

Emax [%]	EC50 [nM]	SMILES
63	37	CN(C(=O)c1ccc(C#Cc2cncc(Cl)c2)cn1)C(C)(C)C(F)(F)F [Example 55, 5-(5-Chloro-pyridin-3-ylethynyl)-pyridine-2-carboxylic Acid methyl-(2,2,2-trifluoro-1,1-dimethyl-ethyl)-amide]
58	35	CC1(C)CN(C(=O)c2ccc(C#Cc3ccccc3)cn2)CCC1O (racemic) [Example 39, (RS)-(4-Hydroxy-3,3-dimethyl-piperidin-1-yl)-(5-phenylethynyl-pyridin-2-yl)-methanone]
69	34	CN(C(=O)c1ncc(C#Cc2ccc(F)cc2)cn1)C(C)(C)C [Example 11, 5-(4-Fluoro-phenylethynyl)-pyrimidine-2-carboxylic Acid tert-butyl-methyl-amide]
56	32	CN(C(=O)c1ccc(C#Cc2cccc(F)c2)cn1)C1CCC1 [Example 25, 5-(3-Fluoro-phenylethynyl)-pyridine-2-carboxylic Acid cyclobutyl-methyl-amide]
65	32	CN(C(=O)c1ncc(C#Cc2ccc(F)cc2)cc1F)C(C)(C)C [Example 22, 3-Fluoro-5-(4-fluoro-phenylethynyl)-pyridine-2-carboxylic Acid tert-butyl-methyl-amide]
57	28	CC1(C)CC(O)CCN1C(=O)c1ccc(C#Cc2ccccc2)cn1 (racemic) [Example 38, (RS)-(4-Hydroxy-2,2-dimethyl-piperidin-1-yl)-(5-phenylethynyl-pyridin-2-yl)-methanone]
46	27	Cc1cccc(C#Cc2ccc(C(=O)N(C)C3(C(F)(F)F)CC3)nc2)c1 [Example 34, 5-m-Tolylethynyl-pyridine-2-carboxylic Acid methyl-(1-trifluoromethyl-cyclopropyl)-amide]
47	27	CC(NC(=O)c1ccc(C#Cc2ccnc(Cl)c2)cn1)C(F)(F)F (single isomer, unassigned) [Example 59, (R) or (S)-5-(2-Chloro-pyridin-4-ylethynyl)-pyridine-2-carboxylic Acid (2,2,2-trifluoro-1-methyl-ethyl)-amide]
35	25	CC(N(C)C(=O)c1ccc(C#Cc2cccc(Cl)c2)cn1)C(F)(F)F (racemic) [Example 62, (RS)-5-(3-Chloro-phenylethynyl)-pyridine-2-carboxylic acid methyl-(2,2,2-trifluoro-1-methyl-ethyl)-amide]
43	17	CN(C(=O)c1ccc(C#Cc2cccc(F)c2)cn1)C1(C)CC1 [Example 31, 5-(3-Fluoro-phenylethynyl)-pyridine-2-carboxylic Acid methyl-(1-methyl-cyclopropyl)-amide]
